From PMC3443622 (2012)

Legend:
[1] = target: T1, ABCG2 (Homo sapiens, UniProt Q9UNQ0); type: cell-based
T1 sequence (Q9UNQ0 1-655): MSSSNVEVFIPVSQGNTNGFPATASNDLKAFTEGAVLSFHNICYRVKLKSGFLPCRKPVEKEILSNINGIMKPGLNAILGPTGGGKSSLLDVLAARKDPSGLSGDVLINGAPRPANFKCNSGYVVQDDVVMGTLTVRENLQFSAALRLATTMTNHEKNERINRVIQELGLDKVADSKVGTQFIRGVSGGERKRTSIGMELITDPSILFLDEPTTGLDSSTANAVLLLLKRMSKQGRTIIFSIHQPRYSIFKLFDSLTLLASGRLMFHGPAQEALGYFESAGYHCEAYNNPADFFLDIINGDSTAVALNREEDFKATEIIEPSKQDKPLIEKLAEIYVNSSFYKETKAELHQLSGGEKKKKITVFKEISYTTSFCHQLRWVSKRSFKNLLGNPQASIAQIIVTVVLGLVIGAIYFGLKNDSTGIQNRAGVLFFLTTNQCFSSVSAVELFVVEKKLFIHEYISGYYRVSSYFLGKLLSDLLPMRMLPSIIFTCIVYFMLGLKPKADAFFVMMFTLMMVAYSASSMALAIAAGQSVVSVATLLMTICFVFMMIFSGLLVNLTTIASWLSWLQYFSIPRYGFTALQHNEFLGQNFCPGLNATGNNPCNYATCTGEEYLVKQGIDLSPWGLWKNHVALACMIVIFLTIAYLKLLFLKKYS

[2] = target: T1, ABCG2; assay: intracellular accumulation in ABCG2-transfected HEK293 cells; type: cell-based

SMILES | ATP-dependent uptake into membrane vesicles [1] | intracellular accumulation in ABCG2-transfected HEK293 cells [2]
CN(Cc1cnc2nc(N)nc(N)c2n1)c1ccc(C(=O)N[C@@H](CCC(=O)O)C(=O)O)cc1 [[3H]-methotrexate] | using membrane vesicles to determine the rate of ATP-dependent uptake of [^3H]-methotrexate, another substrate of ABCG2 | 
O=C1c2c(O)ccc(O)c2C(=O)c2c(NCCNCCO)ccc(NCCNCCO)c21 [[3H]-mitoxantrone] |  | the intracellular levels of [^3H]-mitoxantrone, a known substrate of ABCG2 was measured in the presence or absence of VKJP1 or VKJP3
